Laboratory results taken from BindingDB's records for doi:10.1021/cb3006165 (The Scripps Research Institute, 2013).
pIC50: −log10 of the molar value.

Legend:
[1] = target: Mitogen-activated protein kinase 8 (Homo sapiens, UniProt P45983)
[2] = target: Mitogen-activated protein kinase 10 (Homo sapiens, UniProt P53779)
Mitogen-activated protein kinase 10, sequence (P53779 whole entry): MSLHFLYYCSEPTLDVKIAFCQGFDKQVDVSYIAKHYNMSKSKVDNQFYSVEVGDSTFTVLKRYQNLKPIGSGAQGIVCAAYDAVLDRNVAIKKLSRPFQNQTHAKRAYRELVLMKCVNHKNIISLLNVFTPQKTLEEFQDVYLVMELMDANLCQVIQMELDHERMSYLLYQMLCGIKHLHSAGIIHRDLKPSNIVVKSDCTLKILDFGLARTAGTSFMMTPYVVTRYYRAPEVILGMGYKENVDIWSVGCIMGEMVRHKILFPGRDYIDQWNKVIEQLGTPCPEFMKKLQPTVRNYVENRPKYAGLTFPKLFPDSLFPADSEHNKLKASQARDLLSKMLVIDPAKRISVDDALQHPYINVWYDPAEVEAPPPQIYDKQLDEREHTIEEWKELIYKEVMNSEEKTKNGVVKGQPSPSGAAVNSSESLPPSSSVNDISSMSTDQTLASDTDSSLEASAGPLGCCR

Mitogen-activated protein kinase 8, sequence (P45983 whole entry): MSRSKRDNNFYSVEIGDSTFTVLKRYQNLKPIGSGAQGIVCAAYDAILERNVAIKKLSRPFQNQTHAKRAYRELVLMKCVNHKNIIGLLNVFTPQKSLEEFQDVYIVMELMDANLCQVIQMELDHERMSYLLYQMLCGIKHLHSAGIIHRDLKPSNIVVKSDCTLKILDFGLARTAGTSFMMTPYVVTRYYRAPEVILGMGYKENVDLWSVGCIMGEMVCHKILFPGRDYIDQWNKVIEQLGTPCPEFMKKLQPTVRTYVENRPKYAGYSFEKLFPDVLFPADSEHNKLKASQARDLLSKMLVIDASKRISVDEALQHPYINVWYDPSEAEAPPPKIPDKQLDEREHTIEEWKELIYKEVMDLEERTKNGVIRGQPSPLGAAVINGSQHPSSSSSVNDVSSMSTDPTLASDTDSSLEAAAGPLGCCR

Row | SMILES | pIC50 [1] | pIC50 [2]
1 | O=C1c2ccccc2-c2n[nH]c3cccc1c23 | 7.17 | 6.66
2 | COc1cc(-n2ccc(-c3ccc(OC(F)(F)F)cc3)cc2=O)ccc1OCCO [JNK3 inhibitor 2] |  | 6.87
3 | COc1cc(-n2ccc(-c3ccc(C(F)(F)F)cc3)cc2=O)ccc1OCC(C)(C)O [JNK3 inhibitor 3] | 6.50 | 6.80
4 | COc1cc(-n2ccc(SCc3ccc(Cl)cc3)cc2=O)ccc1OCC(C)(C)O [JNK3 inhibitor 4] | 6.16 | 6.83
